Source: ChEMBL document CHEMBL4359836, “Synthesis and Biological Assessment of Pyrrolobenzoxazine Scaffold as a Potent Antioxidant” (J Med Chem, 2019)
The source made the active and inactive calls. The calls are words filed in the database; no cut-off is given here.

Tests used:
[1] = system: Mitochondria; assay: Antioxidant activity in goat cardiac mitochondria assessed as inhibition of CuCl2/ascorbic acid-induced manganese superoxide dismutase at 8.25 uM after 1 hr by pyrogallol autoxidation method relative to control; format: functional, subcellular; conditions: Capra hircus, Heart, Mitochrondria
[2] = Reducing power of the compound assessed as reducing Fe3+ power at 80 uM using K3Fe(CN)6 in pH 6.6 phosphate buffer after 20 mins by spectrophotometric analysis
[3] = system: Mitochondria; assay: Antioxidant activity in goat cardiac mitochondria assessed as inhibition of CuCl2/ascorbic acid-induced protein carbonyl content at 16.5 uM after 1 hr by DNPH assay relative to control; format: functional, subcellular; conditions: Capra hircus, Heart, Mitochrondria
[4] = system: Mitochondria; assay: Antioxidant activity in goat cardiac mitochondria assessed as inhibition of CuCl2/ascorbic acid-induced protein carbonyl content at 8.25 uM after 1 hr by DNPH assay relative to control; format: functional, subcellular; conditions: Capra hircus, Heart, Mitochrondria
[5] = system: Mitochondria; assay: Antioxidant activity in goat cardiac mitochondria assessed as inhibition of CuCl2/ascorbic acid-induced protein carbonyl content at 33 uM after 1 hr by DNPH assay relative to control; format: functional, subcellular; conditions: Capra hircus, Heart, Mitochrondria
[6] = system: Mitochondria; assay: Antioxidant activity in goat cardiac mitochondria assessed as reversal of CuCl2/ascorbic acid-induced reduction in GSH level at 33 uM after 1 hr by DTNB reagent based method relative to control; format: functional, subcellular; conditions: Capra hircus, Heart, Mitochrondria
[7] = system: Mitochondria; assay: Antioxidant activity in goat cardiac mitochondria assessed as reversal of CuCl2/ascorbic acid-induced reduction in GSH level at 66 uM after 1 hr by DTNB reagent based method relative to control; format: functional, subcellular; conditions: Capra hircus, Heart, Mitochrondria
[8] = system: Mitochondria; assay: Antioxidant activity in goat cardiac mitochondria assessed as reversal of CuCl2/ascorbic acid-induced reduction in PDH level at 8.25 uM using sodium pyruvate as substrate after 1 hr by spectrophotometric analysis (reference value: 66.25%); format: functional, subcellular; set-up: scale not given: the % may be the effect or the level left; conditions: Capra hircus, Heart, Mitochrondria
[9] = system: Mitochondria; assay: Antioxidant activity in goat cardiac mitochondria assessed as reversal of CuCl2/ascorbic acid-induced reduction in PDH level at 33 uM using sodium pyruvate as substrate after 1 hr by spectrophotometric analysis relative to control; format: functional, subcellular; conditions: Capra hircus, Heart, Mitochrondria
[10] = system: Mitochondria; assay: Antioxidant activity in goat cardiac mitochondria assessed as reversal of CuCl2/ascorbic acid-induced reduction in alpha-KGDH level at 33 uM using alpha-ketoglutarate as substrate after 1 hr relative to control; format: functional, subcellular; conditions: Capra hircus, Heart, Mitochrondria
[11] = system: Mitochondria; assay: Antioxidant activity in goat cardiac mitochondria assessed as reversal of CuCl2/ascorbic acid-induced reduction in alpha-KGDH level at 66 uM using alpha-ketoglutarate as substrate after 1 hr relative to control; format: functional, subcellular; conditions: Capra hircus, Heart, Mitochrondria
[12] = system: Mitochondria; assay: Antioxidant activity in goat cardiac mitochondria assessed as reversal of CuCl2/ascorbic acid-induced reduction in SDH level at 66 uM using succinate as substrate after 1 hr by spectrophotometric analysis relative to control; format: functional, subcellular; conditions: Capra hircus, Heart, Mitochrondria
[13] = Inhibition of alpha-ketoglutarate dehydrogenase in goat cardiac mitochondria assessed as effect on Vmax at 66 uM using alpha-ketoglutarate as substrate after 1 hr by Lineweaver-Burk double reciprocal plot analysis; set-up: species or system Capra hircus, Heart
[14] = species on record: Capra hircus; assay: Effect on PDH in goat cardiac mitochondria assessed as reversal of CuCl2/ascorbic acid induced reduction in Vmax at 66 uM using sodium pyruvate as substrate after 1 hr by Lineweaver-Burk double reciprocal plot analysis; conditions: Heart
[15] = species on record: Capra hircus; assay: Effect on ICDH in goat cardiac mitochondria assessed as reversal of CuCl2/ascorbic acid induced reduction in Km at 66 uM using isocitrate as substrate after 1 hr by Lineweaver-Burk double reciprocal plot analysis; conditions: Heart
[16] = species on record: Capra hircus; assay: Effect on alpha-ketoglutarate dehydrogenase in goat cardiac mitochondria assessed as reversal of CuCl2/ascorbic acid induced reduction in Km at 66 uM using alpha-ketoglutarate as substrate after 1 hr by Lineweaver-Burk double reciprocal plot analysis; conditions: Heart
[17] = Effect on intactness in goat cardiac mitochondria at 66 uM after 1 hr by Janus green-B staining based confocal microscopic method; format: ADME, subcellular, Capra hircus, Heart, Mitochrondria
[18] = system: Mitochondria; assay: Protective activity in goat cardiac mitochondria assessed as inhibition of CuCl2/ascorbic acid-induced perforated surface at 66 uM incubated for 1 hr by scanning electron microscopy; format: functional, subcellular; conditions: Capra hircus, Heart, Mitochrondria
[19] = system: Mitochondria; assay: Protective activity in goat cardiac mitochondria assessed as reduction in CuCl2/ascorbic acid-induced calcium accumulation at 66 uM after 60 min (reference value: 25.32%); format: functional, subcellular; set-up: scale not given: the % may be the effect or the level left; conditions: Capra hircus, Heart, Mitochrondria
[20] = Binding affinity to Cu2+/ascorbate assessed as decrease in heat change at 66 uM in presence of ascorbic acid/CuCl2 by isothermal titration calorimetry
[21] = Binding affinity to Cu2+ assessed as binding constant K2 at 66 uM in presence of ascorbic acid/CuCl2 by isothermal titration calorimetry

inhibition (INH) [13]: Not Active | Activity [14]: Active | Activity [15]: Active | Activity [16]: Active | Activity [20]: Active | K [21]: 5.07 ×10³ /M
SMILES: CCOC(=O)c1c(-c2ccc(O)c(OC)c2)cn2c1c(=O)oc1ccccc12
inhibition [1]: 25.7% | Activity [2]: Dose-dependent effect | inhibition [3]: 44% | inhibition [4]: 21.9% | inhibition [5]: 64.8% | fold change (FC) [6]: 4.66 | fold change (FC) [7]: 6.3 | Activity [8]: 49.3% | fold change (FC) [9]: 2.94 | fold change (FC) [10]: 2.74 | fold change (FC) [11]: 4.62 | fold change (FC) [12]: 5 | Activity [17]: Non-Toxic | Activity [18]: Active | Activity [19]: 15%
